In the supplement of paper PMC8882468:
± gives the standard deviation of the averaged measurements.

system: HCI-017.E2 (organoid from an ER-positive breast cancer xenograft); experiment: CTG-3D luminescence at 96 h relative to day-0 seeding control (ratio to day 0); higher = more growth / less cytotoxicity; PDxO 3D drug screen, 96 h, CTG-3D normalised to day-0 seeding control.; conditions: 10 µM; days in culture: 85

| SMILES | CTG-3D luminescence at 96 h |
| --- | --- |
| O=C(c1ccc(F)c(F)c1Nc1ccc(I)cc1F)N1CC(O)([C@@H]2CCCCN2)C1 [cobimetinib] | 2.15 |
| C[C@H](NC(=O)CCC(F)(F)F)C(=O)N[C@@H]1C(=O)N(CCO)c2ncccc2-c2ccccc21 [crenigacestat] | 1.57 |
| Cc1cc(Nc2ncc(Cl)c(Nc3ccccc3S(=O)(=O)C(C)C)n2)c(OC(C)C)cc1C1CCNCC1 [ceritinib] | 0.446 |
| CS(=O)(=O)c1ccc(C(=O)Nc2ccc(Cl)c(-c3ccccn3)c2)c(Cl)c1 [vismodegib] | 1.76 |
| NC(=O)c1cccc2cn(-c3ccc([C@@H]4CCCNC4)cc3)nc12 [niraparib] | 1.81 |

same assay, conditions: 100 µM

| SMILES | CTG-3D luminescence at 96 h |
| --- | --- |
| C[C@@H]1COCCN1c1cc(C2([S@](C)(=N)=O)CC2)nc(-c2cc[nH]c3nccc2-3)n1 [ceralasertib] | 0.8168 ± 0.007 |
| CCN1CCN(Cc2ccc(Nc3ncc(F)c(-c4cc(F)c5nc(C)n(C(C)C)c5c4)n3)nc2)CC1 [abemaciclib] | 0.00884 ± 0.0013 |
| NC1(C(=O)N[C@@H](CCO)c2ccc(Cl)cc2)CCN(c2nc[nH]c3nccc2-3)CC1 [capivasertib] | 0.2237 ± 0.00086 |
| CC(C)n1nc(-c2ccc3oc(N)nc3c2)c2c(N)ncnc21 [sapanisertib] | 0.126 ± 0.06 |
| O=C(c1ccc(F)c(F)c1Nc1ccc(I)cc1F)N1CC(O)([C@@H]2CCCCN2)C1 [cobimetinib] | 0.00898 ± 0.0081 |
| C[C@H](NC(=O)CCC(F)(F)F)C(=O)N[C@@H]1C(=O)N(CCO)c2ncccc2-c2ccccc21 [crenigacestat] | 1.78 ± 0.23 |
| Cc1cc(Nc2ncc(Cl)c(Nc3ccccc3S(=O)(=O)C(C)C)n2)c(OC(C)C)cc1C1CCNCC1 [ceritinib] | -0.00443 ± 0.0012 |
| CS(=O)(=O)c1ccc(C(=O)Nc2ccc(Cl)c(-c3ccccn3)c2)c(Cl)c1 [vismodegib] | 0.824 ± 0.086 |
| NC(=O)c1cccc2cn(-c3ccc([C@@H]4CCCNC4)cc3)nc12 [niraparib] | 0.00319 ± 0.004 |

same assay, conditions: 100 µM; days in culture: 85

| SMILES | CTG-3D luminescence at 96 h |
| --- | --- |
| C[C@@H]1COCCN1c1cc(C2([S@](C)(=N)=O)CC2)nc(-c2cc[nH]c3nccc2-3)n1 [ceralasertib] | 0.827 |
| CCN1CCN(Cc2ccc(Nc3ncc(F)c(-c4cc(F)c5nc(C)n(C(C)C)c5c4)n3)nc2)CC1 [abemaciclib] | 0.0118 |
| NC1(C(=O)N[C@@H](CCO)c2ccc(Cl)cc2)CCN(c2nc[nH]c3nccc2-3)CC1 [capivasertib] | 0.118 |
| CC(C)n1nc(-c2ccc3oc(N)nc3c2)c2c(N)ncnc21 [sapanisertib] | 0.141 |
| O=C(c1ccc(F)c(F)c1Nc1ccc(I)cc1F)N1CC(O)([C@@H]2CCCCN2)C1 [cobimetinib] | 0.017 |
| C[C@H](NC(=O)CCC(F)(F)F)C(=O)N[C@@H]1C(=O)N(CCO)c2ncccc2-c2ccccc21 [crenigacestat] | 2.02 |
| Cc1cc(Nc2ncc(Cl)c(Nc3ccccc3S(=O)(=O)C(C)C)n2)c(OC(C)C)cc1C1CCNCC1 [ceritinib] | -0.00537 |
| CS(=O)(=O)c1ccc(C(=O)Nc2ccc(Cl)c(-c3ccccn3)c2)c(Cl)c1 [vismodegib] | 0.842 |
| NC(=O)c1cccc2cn(-c3ccc([C@@H]4CCCNC4)cc3)nc12 [niraparib] | 0.00236 |

same assay, conditions: 625 fM

| SMILES | CTG-3D luminescence at 96 h |
| --- | --- |
| C[C@@H]1COCCN1c1cc(C2([S@](C)(=N)=O)CC2)nc(-c2cc[nH]c3nccc2-3)n1 [ceralasertib] | 2.165 ± 0.019 |
| CCN1CCN(Cc2ccc(Nc3ncc(F)c(-c4cc(F)c5nc(C)n(C(C)C)c5c4)n3)nc2)CC1 [abemaciclib] | 2.33 ± 0.15 |
| NC1(C(=O)N[C@@H](CCO)c2ccc(Cl)cc2)CCN(c2nc[nH]c3nccc2-3)CC1 [capivasertib] | 2.12 ± 0.11 |
| CC(C)n1nc(-c2ccc3oc(N)nc3c2)c2c(N)ncnc21 [sapanisertib] | 2.02 ± 0.26 |
| O=C(c1ccc(F)c(F)c1Nc1ccc(I)cc1F)N1CC(O)([C@@H]2CCCCN2)C1 [cobimetinib] | 2.01 ± 0.47 |
| C[C@H](NC(=O)CCC(F)(F)F)C(=O)N[C@@H]1C(=O)N(CCO)c2ncccc2-c2ccccc21 [crenigacestat] | 2.32 ± 0.025 |
| Cc1cc(Nc2ncc(Cl)c(Nc3ccccc3S(=O)(=O)C(C)C)n2)c(OC(C)C)cc1C1CCNCC1 [ceritinib] | 2.22 ± 0.34 |
| CS(=O)(=O)c1ccc(C(=O)Nc2ccc(Cl)c(-c3ccccn3)c2)c(Cl)c1 [vismodegib] | 1.88 ± 0.089 |
| NC(=O)c1cccc2cn(-c3ccc([C@@H]4CCCNC4)cc3)nc12 [niraparib] | 1.94 ± 0.13 |

same assay, conditions: 625 fM; days in culture: 85

| SMILES | CTG-3D luminescence at 96 h |
| --- | --- |
| C[C@@H]1COCCN1c1cc(C2([S@](C)(=N)=O)CC2)nc(-c2cc[nH]c3nccc2-3)n1 [ceralasertib] | 2.52 |
| CCN1CCN(Cc2ccc(Nc3ncc(F)c(-c4cc(F)c5nc(C)n(C(C)C)c5c4)n3)nc2)CC1 [abemaciclib] | 3.16 |
| NC1(C(=O)N[C@@H](CCO)c2ccc(Cl)cc2)CCN(c2nc[nH]c3nccc2-3)CC1 [capivasertib] | 2.69 |
| CC(C)n1nc(-c2ccc3oc(N)nc3c2)c2c(N)ncnc21 [sapanisertib] | 2.59 |
| O=C(c1ccc(F)c(F)c1Nc1ccc(I)cc1F)N1CC(O)([C@@H]2CCCCN2)C1 [cobimetinib] | 2.45 |
| C[C@H](NC(=O)CCC(F)(F)F)C(=O)N[C@@H]1C(=O)N(CCO)c2ncccc2-c2ccccc21 [crenigacestat] | 3.08 |
| Cc1cc(Nc2ncc(Cl)c(Nc3ccccc3S(=O)(=O)C(C)C)n2)c(OC(C)C)cc1C1CCNCC1 [ceritinib] | 2.49 |
| CS(=O)(=O)c1ccc(C(=O)Nc2ccc(Cl)c(-c3ccccn3)c2)c(Cl)c1 [vismodegib] | 2.14 |
| NC(=O)c1cccc2cn(-c3ccc([C@@H]4CCCNC4)cc3)nc12 [niraparib] | 1.95 |

system: HCI-025 (organoid from a breast cancer xenograft); experiment: as above; conditions: 12.5 pM; days in culture: 172

| SMILES | CTG-3D luminescence at 96 h |
| --- | --- |
| C[C@@H]1COCCN1c1cc(C2([S@](C)(=N)=O)CC2)nc(-c2cc[nH]c3nccc2-3)n1 [ceralasertib] | 2.29 |
| CCN1CCN(Cc2ccc(Nc3ncc(F)c(-c4cc(F)c5nc(C)n(C(C)C)c5c4)n3)nc2)CC1 [abemaciclib] | 3.01 |
| NC1(C(=O)N[C@@H](CCO)c2ccc(Cl)cc2)CCN(c2nc[nH]c3nccc2-3)CC1 [capivasertib] | 2.76 |
| CC(C)n1nc(-c2ccc3oc(N)nc3c2)c2c(N)ncnc21 [sapanisertib] | 2.78 |
| O=C(c1ccc(F)c(F)c1Nc1ccc(I)cc1F)N1CC(O)([C@@H]2CCCCN2)C1 [cobimetinib] | 2.78 |
| C[C@H](NC(=O)CCC(F)(F)F)C(=O)N[C@@H]1C(=O)N(CCO)c2ncccc2-c2ccccc21 [crenigacestat] | 2.73 |
| Cc1cc(Nc2ncc(Cl)c(Nc3ccccc3S(=O)(=O)C(C)C)n2)c(OC(C)C)cc1C1CCNCC1 [ceritinib] | 2.83 |
| CS(=O)(=O)c1ccc(C(=O)Nc2ccc(Cl)c(-c3ccccn3)c2)c(Cl)c1 [vismodegib] | 3.09 |
| NC(=O)c1cccc2cn(-c3ccc([C@@H]4CCCNC4)cc3)nc12 [niraparib] | 2.92 |

same assay, conditions: 12.5 pM; days in culture: 209

| SMILES | CTG-3D luminescence at 96 h |
| --- | --- |
| C[C@@H]1COCCN1c1cc(C2([S@](C)(=N)=O)CC2)nc(-c2cc[nH]c3nccc2-3)n1 [ceralasertib] | 1.3 |
| CCN1CCN(Cc2ccc(Nc3ncc(F)c(-c4cc(F)c5nc(C)n(C(C)C)c5c4)n3)nc2)CC1 [abemaciclib] | 2.03 |
| NC1(C(=O)N[C@@H](CCO)c2ccc(Cl)cc2)CCN(c2nc[nH]c3nccc2-3)CC1 [capivasertib] | 1.74 |
| CC(C)n1nc(-c2ccc3oc(N)nc3c2)c2c(N)ncnc21 [sapanisertib] | 1.39 |
| O=C(c1ccc(F)c(F)c1Nc1ccc(I)cc1F)N1CC(O)([C@@H]2CCCCN2)C1 [cobimetinib] | 1.76 |
| C[C@H](NC(=O)CCC(F)(F)F)C(=O)N[C@@H]1C(=O)N(CCO)c2ncccc2-c2ccccc21 [crenigacestat] | 2.02 |
| Cc1cc(Nc2ncc(Cl)c(Nc3ccccc3S(=O)(=O)C(C)C)n2)c(OC(C)C)cc1C1CCNCC1 [ceritinib] | 1.92 |
| CS(=O)(=O)c1ccc(C(=O)Nc2ccc(Cl)c(-c3ccccn3)c2)c(Cl)c1 [vismodegib] | 1.85 |
| NC(=O)c1cccc2cn(-c3ccc([C@@H]4CCCNC4)cc3)nc12 [niraparib] | 1.9 |

same assay, conditions: 12.5 pM; days in culture: 218

| SMILES | CTG-3D luminescence at 96 h |
| --- | --- |
| C[C@@H]1COCCN1c1cc(C2([S@](C)(=N)=O)CC2)nc(-c2cc[nH]c3nccc2-3)n1 [ceralasertib] | 1.86 |
| CCN1CCN(Cc2ccc(Nc3ncc(F)c(-c4cc(F)c5nc(C)n(C(C)C)c5c4)n3)nc2)CC1 [abemaciclib] | 1.37 |
| NC1(C(=O)N[C@@H](CCO)c2ccc(Cl)cc2)CCN(c2nc[nH]c3nccc2-3)CC1 [capivasertib] | 1.88 |
| CC(C)n1nc(-c2ccc3oc(N)nc3c2)c2c(N)ncnc21 [sapanisertib] | 1.85 |
| O=C(c1ccc(F)c(F)c1Nc1ccc(I)cc1F)N1CC(O)([C@@H]2CCCCN2)C1 [cobimetinib] | 1.65 |
| C[C@H](NC(=O)CCC(F)(F)F)C(=O)N[C@@H]1C(=O)N(CCO)c2ncccc2-c2ccccc21 [crenigacestat] | 1.89 |
| Cc1cc(Nc2ncc(Cl)c(Nc3ccccc3S(=O)(=O)C(C)C)n2)c(OC(C)C)cc1C1CCNCC1 [ceritinib] | 2.02 |
| CS(=O)(=O)c1ccc(C(=O)Nc2ccc(Cl)c(-c3ccccn3)c2)c(Cl)c1 [vismodegib] | 1.48 |
| NC(=O)c1cccc2cn(-c3ccc([C@@H]4CCCNC4)cc3)nc12 [niraparib] | 1.38 |

same assay, conditions: 0.00025 µM; days in culture: 172

| SMILES | CTG-3D luminescence at 96 h |
| --- | --- |
| C[C@@H]1COCCN1c1cc(C2([S@](C)(=N)=O)CC2)nc(-c2cc[nH]c3nccc2-3)n1 [ceralasertib] | 1.93 |
| CCN1CCN(Cc2ccc(Nc3ncc(F)c(-c4cc(F)c5nc(C)n(C(C)C)c5c4)n3)nc2)CC1 [abemaciclib] | 1.55 |
| NC1(C(=O)N[C@@H](CCO)c2ccc(Cl)cc2)CCN(c2nc[nH]c3nccc2-3)CC1 [capivasertib] | 1.4 |
| CC(C)n1nc(-c2ccc3oc(N)nc3c2)c2c(N)ncnc21 [sapanisertib] | 1.04 |
| O=C(c1ccc(F)c(F)c1Nc1ccc(I)cc1F)N1CC(O)([C@@H]2CCCCN2)C1 [cobimetinib] | 1.47 |
| C[C@H](NC(=O)CCC(F)(F)F)C(=O)N[C@@H]1C(=O)N(CCO)c2ncccc2-c2ccccc21 [crenigacestat] | 1.6 |
| Cc1cc(Nc2ncc(Cl)c(Nc3ccccc3S(=O)(=O)C(C)C)n2)c(OC(C)C)cc1C1CCNCC1 [ceritinib] | 2.05 |
| CS(=O)(=O)c1ccc(C(=O)Nc2ccc(Cl)c(-c3ccccn3)c2)c(Cl)c1 [vismodegib] | 1.78 |
| NC(=O)c1cccc2cn(-c3ccc([C@@H]4CCCNC4)cc3)nc12 [niraparib] | 1.82 |
